System: lung cancer cell lines (A549 and chemotherapy-resistant/metastatic H460)
Assay: XTT proliferation assay, lung cancer cells
Assay type: cell-based
Conditions: DT 5, 10, 20 μM; gemcitabine hydrochloride and etoposide 10, 20 μM; 1-2 days; regardless of the dosage; also H460; FIG. 2
Protocol: The prostate cancer cells were plated at a density of 10^3 or 3×10^3 per well, in a 96-well plate, in a medium containing 10% Fetal bovine serum (FBS) (Gibco®, commercially available from Life Technologies, USA). Once the prostate cancer cells were attached to the culture dish, the 10% FBS medium was replaced with a second 10% FBS medium and each of the prostate cancer cell line was treated with 1, 5, and 10 μM of DT respectively for 1-2 days. The absorbance was measured using XTT assay kit (commercially available from Roche, Switzerland) at 492 nm using an ELISA reader (Bio-Rad Laboratories, USA). An in vitro evaluation of the effect of DT, gemcitabine (a chemotherapeutic agent) and etoposide (a chemotherapeutic agent) on the lung cancer cells was performed. The lung cancer cell lines, chemotherapy-resistant/metastatic H460 lung cancer cells (with pleural metastasis) and A549 lung cancer cells, were purchased from Bioresource Collection and Research Center, Taiwan. […] The absorbance was measured using XTT assay kit at 492 nm using an ELISA reader.

| Compound | inhibition of lung cancer proliferation, DT compared with gemcitabine and etoposide |
| --- | --- |
| COc1cc([C@@H]2c3cc4c(cc3[C@@H](O[C@@H]3O[C@@H]5CO[C@@H](C)O[C@H]5[C@H](O)[C@H]3O)[C@H]3COC(=O)[C@H]23)OCO4)cc(OC)c1O [etoposide, reference compound] | DT is more effective than gemcitabine and etoposide |
| Nc1ccn([C@@H]2O[C@H](CO)[C@@H](O)C2(F)F)c(=O)n1 [gemcitabine, reference compound] | DT is more effective than gemcitabine and etoposide |
